From US5985874A, “Substituted morpholine derivative and its use as a therapeutic agent” (Merck Sharp & Dohme Ltd., priority 1998, dated 1999) come the findings set out here.

One assay has as its target NK1 receptor (Homo sapiens, UniProt P25103). Kind of assay: NK1 receptor test by the methods of WO 93/01165 (pages 36 to 39). Conditions: test methods of WO 93/01165, pages 36 to 39. In kind it is binding. The protocol: The compound of this invention was tested by the methods set out at pages 36 to 39 of International Patent Specification No. WO 93/01165.
A further assay has as its system cisplatin-induced emesis. Kind of assay: ferret model of cisplatin-induced emesis (Tattersall et al, Eur. J. Pharmacol. 1993). In kind it is in vivo.

Where only a bound is given, the exact number is not on record here.

Chain of NK1 receptor (P25103 whole entry): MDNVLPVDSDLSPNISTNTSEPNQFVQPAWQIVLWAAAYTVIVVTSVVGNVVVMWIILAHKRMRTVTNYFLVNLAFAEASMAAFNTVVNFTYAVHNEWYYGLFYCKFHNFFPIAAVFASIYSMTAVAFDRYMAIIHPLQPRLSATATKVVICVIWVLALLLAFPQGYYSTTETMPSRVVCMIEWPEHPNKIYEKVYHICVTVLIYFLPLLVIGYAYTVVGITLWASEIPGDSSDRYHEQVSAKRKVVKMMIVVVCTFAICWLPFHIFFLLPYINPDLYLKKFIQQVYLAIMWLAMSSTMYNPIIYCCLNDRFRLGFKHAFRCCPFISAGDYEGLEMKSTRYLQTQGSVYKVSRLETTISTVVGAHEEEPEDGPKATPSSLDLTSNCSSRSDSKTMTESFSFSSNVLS

The compound `Cn1cnc(CN2CCO[C@H](O[C@H](CO)c3cc(C(F)(F)F)cc(C(F)(F)F)c3)[C@@H]2c2ccc(F)cc2)n1` [Example 1, 2(R)-(1-(3,5-Bis(trifluoromethyl)phenyl)-2(S)-hydroxyethoxy)-3(S)-(4-fluorophenyl)-4-((1-methyl-1,2,4-triazol-3-yl)methylene)morpholine] showed an IC50 against NK1 receptor of less than 1 nM. Besides, the “retching and vomiting induced by cisplatin” value in the assay with cisplatin-induced emesis is “attenuate the retching and vomiting induced by cisplatin”.

Broadly, the IC50 is the concentration that gives 50% inhibition. A higher IC50 goes with weaker potency in that assay.
